Tests used:
Type in all cases: in vivo
[1] = tested on: redroot pigweed (Amaranthus retroflexus, AMARE); assay: Pre-emerge test, greenhouse herbicide activity screening; settings: pre-emerge, rated 14 days after application, 0 = no damage, 100 = complete death
Summary of the method: (§1)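 Compounds in acetone were track-sprayed at 15-1000 g ai/ha (187 l/ha) on sandy loam pots: pre-emerge one day after seeding, post-emerge at 2-3 leaf stage with 0.25% v/v non-ionic surfactant. Phytotoxicity was rated 14 days later on a 0 (no damage) to 100 (complete death) scale.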

[2] = tested on: barnyardgrass (Echinochloa crus-galli, ECHCG); assay: as above; settings: pre-emerge, rated 14 days after application, 0 = no damage, 100 = complete death
Summary of the method: (§2)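 Compounds in acetone were track-sprayed at 15–1000 g ai/ha: pre-emergence onto soil sown the previous day, then top-watered to incorporate and later bottom-watered; post-emergence onto 2–3 leaf plants with 0.25% v/v surfactant, bottom-watered only. Ratings on a 0–100 phytotoxicity scale were taken at day 14.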

[3] = tested on: green foxtail (Setaria viridis, SETVI); assay: as above; settings: pre-emerge, rated 14 days after application, 0 = no damage, 100 = complete death
Summary of the method: as §2

[4] = tested on: ivyleaf morningglory (Ipomoea hederacea, IPOHE); assay: as above; settings: pre-emerge, rated 14 days after application, 0 = no damage, 100 = complete death
Summary of the method: as §2

[5] = tested on: johnsongrass (Sorghum halepense, SORHA); assay: as above; settings: pre-emerge, rated 14 days after application, 0 = no damage, 100 = complete death
Summary of the method: as §2

[6] = tested on: lambsquarters (Chenopodium album, CHEAL); assay: as above; settings: pre-emerge, rated 14 days after application, 0 = no damage, 100 = complete death
Summary of the method: as §2

[7] = tested on: large crabgrass (Digitaria sanguinalis, DIGSA); assay: as above; settings: pre-emerge, rated 14 days after application, 0 = no damage, 100 = complete death
Summary of the method: as §2

[8] = tested on: sicklepod (Cassia obtusifolia, CASOB); assay: as above; settings: pre-emerge, rated 14 days after application, 0 = no damage, 100 = complete death
Summary of the method: as §2

[9] = tested on: velvetleaf (Abutilon theophrasti, ABUTH); assay: as above; settings: pre-emerge, rated 14 days after application, 0 = no damage, 100 = complete death
Summary of the method: as §2

[10] = tested on: field corn (Zea mays L., var. Dekalb 535, CORN); assay: Pre-emerge test, crop safety; settings: pre-emerge, rated 14 days after application, 0 = no damage, 100 = complete death
Summary of the method: as §1

[11] = tested on: upland rice (Oryza sp., var. Tebonnet, RICE); assay: Pre-emerge test, crop safety; settings: pre-emerge, rated 14 days after application, 0 = no damage, 100 = complete death
Summary of the method: as §1

[12] = tested on: barnyardgrass (Echinochloa crus-galli, ECHCG); assay: Post-emerge test, greenhouse herbicide activity screening; settings: phytotoxicity rating 0-100 (0 no damage, 100 complete death), 14 days after application
Summary of the method: (§3)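 Compounds in acetone were track-sprayed at 187 l/ha, 15–1000 g ai/ha, onto sandy loam pots. Pre-emerge seeds were sown one day before spraying, with surface watering afterwards. Post-emerge plants were at the 2–3 leaf stage and sprayed with 0.25% v/v non-ionic surfactant. Injury was rated 0–100 at 14 days.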

[13] = tested on: green foxtail (Setaria viridis, SETVI); assay: as above; settings: phytotoxicity rating 0-100 (0 no damage, 100 complete death), 14 days after application
Summary of the method: as §3

[14] = tested on: ivyleaf morningglory (Ipomoea hederacea, IPOHE); assay: as above; settings: phytotoxicity rating 0-100 (0 no damage, 100 complete death), 14 days after application
Summary of the method: as §3

[15] = tested on: johnsongrass (Sorghum halepense, SORHA); assay: as above; settings: phytotoxicity rating 0-100 (0 no damage, 100 complete death), 14 days after application
Summary of the method: as §3

[16] = tested on: lambsquarters (Chenopodium album, CHEAL); assay: as above; settings: phytotoxicity rating 0-100 (0 no damage, 100 complete death), 14 days after application
Summary of the method: as §3

[17] = tested on: large crabgrass (Digitaria sanguinalis, DIGSA); assay: as above; settings: phytotoxicity rating 0-100 (0 no damage, 100 complete death), 14 days after application
Summary of the method: as §3

[18] = tested on: redroot pigweed (Amaranthus retroflexus, AMARE); assay: as above; settings: phytotoxicity rating 0-100 (0 no damage, 100 complete death), 14 days after application
Summary of the method: as §3

[19] = tested on: sicklepod (Cassia obtusifolia, CASOB); assay: as above; settings: phytotoxicity rating 0-100 (0 no damage, 100 complete death), 14 days after application
Summary of the method: as §3

[20] = tested on: velvetleaf (Abutilon theophrasti, ABUTH); assay: as above; settings: phytotoxicity rating 0-100 (0 no damage, 100 complete death), 14 days after application
Summary of the method: as §3

[21] = tested on: field corn (Zea mays L., var. Dekalb 535, CORN); assay: Post-emerge test, crop safety; settings: phytotoxicity rating 0-100 (0 no damage, 100 complete death), 14 days after application
Summary of the method: (§4)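 Rating: 0–100 visual injury, 14 DAA. Application: acetone, 187 l/ha, 15–1000 g ai/ha, flat-fan track sprayer with nozzle 40–45 cm above soil or canopy. Post-emerge runs used 0.25% v/v surfactant on 2–3 leaf plants.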

[22] = tested on: upland rice (Oryza sp., var. Tebonnet, RICE); assay: Post-emerge test, crop safety; settings: phytotoxicity rating 0-100 (0 no damage, 100 complete death), 14 days after application
Summary of the method: as §4

Cn1c(C(F)(F)F)cc(=O)n(-c2c(F)cc(Cl)c(OCc3ccccc3)c2N)c1=O [Compound 1-22]
80: Post-emerge Herbicidal Activity SETVI ([13]; 250 g ai/ha) | Post-emerge Herbicidal Activity CHEAL ([16]; 250 g ai/ha) | Post-emerge Herbicidal Activity AMARE ([18]; 250 g ai/ha)
40: Post-emerge Herbicidal Activity IPOHE ([14]; 63 g ai/ha) | Post-emerge Herbicidal Activity CHEAL ([16]; 63 g ai/ha) | Post-emerge Herbicidal Activity RICE (crop damage) ([22]; 250 g ai/ha)
90: Pre-emerge Herbicidal Activity SETVI (phytotoxicity rating, scale 0-100) ([3]; 63 g ai/ha) | Post-emerge Herbicidal Activity IPOHE ([14]; 250 g ai/ha)
0: Pre-emerge Herbicidal Activity ECHCG (phytotoxicity rating, scale 0-100) ([2]; 63 g ai/ha) | Pre-emerge Herbicidal Activity IPOHE (phytotoxicity rating, scale 0-100) ([4]; 63 g ai/ha) | Pre-emerge Herbicidal Activity SORHA (phytotoxicity rating, scale 0-100) ([5]; 63 g ai/ha) | Pre-emerge Herbicidal Activity DIGSA (phytotoxicity rating, scale 0-100) ([7]; 63 g ai/ha) | Pre-emerge Herbicidal Activity CASOB (phytotoxicity rating, scale 0-100) ([8]; 63 g ai/ha) | Pre-emerge Herbicidal Activity CASOB (phytotoxicity rating, scale 0-100) ([8]; 250 g ai/ha) | Pre-emerge crop damage CORN (phytotoxicity rating, scale 0-100) ([10]; 63 g ai/ha) | Pre-emerge crop damage RICE (phytotoxicity rating, scale 0-100) ([11]; 63 g ai/ha) | Post-emerge Herbicidal Activity ECHCG ([12]; 63 g ai/ha) | Post-emerge Herbicidal Activity ECHCG ([12]; 250 g ai/ha) | Post-emerge Herbicidal Activity SETVI ([13]; 63 g ai/ha) | Post-emerge Herbicidal Activity SORHA ([15]; 63 g ai/ha) | Post-emerge Herbicidal Activity DIGSA ([17]; 63 g ai/ha) | Post-emerge Herbicidal Activity DIGSA ([17]; 250 g ai/ha) | Post-emerge Herbicidal Activity CASOB ([19]; 63 g ai/ha) | Post-emerge Herbicidal Activity CASOB ([19]; 250 g ai/ha)
60: Pre-emerge Herbicidal Activity ECHCG (phytotoxicity rating, scale 0-100) ([2]; 250 g ai/ha) | Pre-emerge Herbicidal Activity SORHA (phytotoxicity rating, scale 0-100) ([5]; 250 g ai/ha) | Pre-emerge Herbicidal Activity DIGSA (phytotoxicity rating, scale 0-100) ([7]; 250 g ai/ha) | Post-emerge Herbicidal Activity AMARE ([18]; 63 g ai/ha)
50: Pre-emerge crop damage RICE (phytotoxicity rating, scale 0-100) ([11]; 250 g ai/ha)
95: Pre-emerge Herbicidal Activity AMARE (phytotoxicity rating, scale 0-100) ([1]; 63 g ai/ha) | Pre-emerge Herbicidal Activity CHEAL (phytotoxicity rating, scale 0-100) ([6]; 63 g ai/ha)
20: Pre-emerge Herbicidal Activity IPOHE (phytotoxicity rating, scale 0-100) ([4]; 250 g ai/ha)
5: Post-emerge Herbicidal Activity CORN (crop damage) ([21]; 63 g ai/ha)
10: Pre-emerge crop damage CORN (phytotoxicity rating, scale 0-100) ([10]; 250 g ai/ha) | Post-emerge Herbicidal Activity SORHA ([15]; 250 g ai/ha) | Post-emerge Herbicidal Activity RICE (crop damage) ([22]; 63 g ai/ha)
100: Pre-emerge Herbicidal Activity AMARE (phytotoxicity rating, scale 0-100) ([1]; 250 g ai/ha) | Pre-emerge Herbicidal Activity SETVI (phytotoxicity rating, scale 0-100) ([3]; 250 g ai/ha) | Pre-emerge Herbicidal Activity CHEAL (phytotoxicity rating, scale 0-100) ([6]; 250 g ai/ha) | Pre-emerge Herbicidal Activity ABUTH (phytotoxicity rating, scale 0-100) ([9]; 63 g ai/ha) | Pre-emerge Herbicidal Activity ABUTH (phytotoxicity rating, scale 0-100) ([9]; 250 g ai/ha) | Post-emerge Herbicidal Activity ABUTH ([20]; 63 g ai/ha) | Post-emerge Herbicidal Activity ABUTH ([20]; 250 g ai/ha)
15: Post-emerge Herbicidal Activity CORN (crop damage) ([21]; 250 g ai/ha)

Reference: patent US6355799B1, “Substituted benzene compounds, process for their preparation, and herbicidal and defoliant compositions containing them” (ISK Americas Incorporated, priority 1997, dated 2002)
